Among the data in PubChem BioAssay (NCI) are TGI values, retold here.

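48-hour exposure; five concentrations; linearly interpolated endpoints. TGI marks complete inhibition of growth.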 Where a SMILES comes first, the peptide text is derived from it. The star is where a group is joined. Boc = CC(C)(C)OC(=O)*; OSu = O=C1CCC(=O)N1O*

The first assay has as its system SR leukemia. The assay can be described thus: growth of human tumour cells (NCI), 48 h.
Turning to `CC(C)(C)OC(=O)NC(Cc1ccc(O)cc1)C(=O)NC(CCCCN)C(=O)NC(Cc1ccc(O)cc1)C(=O)NC(CCCCN)C(=O)ON1C(=O)CCC1=O` (stereo not drawn) (Boc-YKYK-OSu; configuration not given here), the TGI was more than 100 µM.
`[N-]=[N+]=Nc1c(Cl)c(=O)n(-c2ccccc2)c2ccccc12`: the TGI is more than 100 µM.

Another assay relates to HCT-15 colon. The assay can be described thus: growth of human tumour cells (NCI), 48 h.
As to `CC(C)=CCN1CC(C)C(=O)Nc2cc(Cl)ccc21` (stereo not drawn), the TGI stood at 80.6 µM.
The same measure, in the same setting: as for `CC(C)(C)OC(=O)NC(Cc1ccc(O)cc1)C(=O)NC(CCCCN)C(=O)NC(Cc1ccc(O)cc1)C(=O)NC(CCCCN)C(=O)ON1C(=O)CCC1=O` (stereo not drawn) (Boc-YKYK-OSu; configuration not given here), the figure is more than 100 µM.
Turning to `[N-]=[N+]=Nc1c(Cl)c(=O)n(-c2ccccc2)c2ccccc12`, the TGI came to 43.7 µM.

A further assay has as its system NCI/ADR-RES ovarian. The assay can be described thus: growth of human tumour cells (NCI), 48 h.
`[N-]=[N+]=Nc1c(Cl)c(=O)n(-c2ccccc2)c2ccccc12` yielded a TGI of more than 100 µM.

The next assay concerns OVCAR-8 ovarian. The assay can be described thus: growth of human tumour cells (NCI), 48 h.
The molecule `O=c1[nH]cnc2c(C3OC(CO)C(O)C3O)c[nH]c12` (stereo not drawn) registered a TGI of more than 100 µM.
The same measure, in the same setting: as for `CC(C)=CCN1CC(C)C(=O)Nc2cc(Cl)ccc21` (stereo not drawn), the figure is 79.4 µM; as for `CC(C)(C)OC(=O)NC(Cc1ccc(O)cc1)C(=O)NC(CCCCN)C(=O)NC(Cc1ccc(O)cc1)C(=O)NC(CCCCN)C(=O)ON1C(=O)CCC1=O` (stereo not drawn) (Boc-YKYK-OSu; configuration not given here), more than 100 µM.

A further assay relates to SF-539 CNS. The assay can be described thus: growth of human tumour cells (NCI), 48 h.
Take `O=c1[nH]cnc2c(C3OC(CO)C(O)C3O)c[nH]c12` (stereo not drawn): the TGI was more than 100 µM.
`CC(C)=CCN1CC(C)C(=O)Nc2cc(Cl)ccc21` (stereo not drawn): the TGI is 43 µM.
The same measure, in the same setting: with `[N-]=[N+]=Nc1c(Cl)c(=O)n(-c2ccccc2)c2ccccc12` the figure was 42.3 µM.

The next assay deals with TK-10 renal. The assay can be described thus: growth of human tumour cells (NCI), 48 h.
Turning to `O=c1[nH]cnc2c(C3OC(CO)C(O)C3O)c[nH]c12` (stereo not drawn), the TGI is more than 100 µM.
Molecule `CC(C)=CCN1CC(C)C(=O)Nc2cc(Cl)ccc21` (stereo not drawn) had a TGI of 63.8 µM.
On the same count and under the same terms, with `CC(C)(C)OC(=O)NC(Cc1ccc(O)cc1)C(=O)NC(CCCCN)C(=O)NC(Cc1ccc(O)cc1)C(=O)NC(CCCCN)C(=O)ON1C(=O)CCC1=O` (stereo not drawn) (Boc-YKYK-OSu; configuration not given here) the figure was more than 100 µM.

The next assay concerns HOP-92 NSCLC. The assay can be described thus: growth of human tumour cells (NCI), 48 h.
As for `O=c1[nH]cnc2c(C3OC(CO)C(O)C3O)c[nH]c12` (stereo not drawn), the TGI was more than 100 µM.
Still for that read-out and setting: with `CC(C)=CCN1CC(C)C(=O)Nc2cc(Cl)ccc21` (stereo not drawn) the figure was 29 µM; with `CC(C)(C)OC(=O)NC(Cc1ccc(O)cc1)C(=O)NC(CCCCN)C(=O)NC(Cc1ccc(O)cc1)C(=O)NC(CCCCN)C(=O)ON1C(=O)CCC1=O` (stereo not drawn) (Boc-YKYK-OSu; configuration not given here), more than 100 µM; with `[N-]=[N+]=Nc1c(Cl)c(=O)n(-c2ccccc2)c2ccccc12`, 38.3 µM.

The subject of the next assay is HT29 colon. The assay can be described thus: growth of human tumour cells (NCI), 48 h.
As for `O=c1[nH]cnc2c(C3OC(CO)C(O)C3O)c[nH]c12` (stereo not drawn), the TGI is more than 100 µM.
Same read-out and setting: as for `CC(C)=CCN1CC(C)C(=O)Nc2cc(Cl)ccc21` (stereo not drawn), the figure is 38.3 µM; as for `CC(C)(C)OC(=O)NC(Cc1ccc(O)cc1)C(=O)NC(CCCCN)C(=O)NC(Cc1ccc(O)cc1)C(=O)NC(CCCCN)C(=O)ON1C(=O)CCC1=O` (stereo not drawn) (Boc-YKYK-OSu; configuration not given here), more than 100 µM; as for `[N-]=[N+]=Nc1c(Cl)c(=O)n(-c2ccccc2)c2ccccc12`, 59.3 µM.

The test system of a further assay is T-47D breast. The assay can be described thus: growth of human tumour cells (NCI), 48 h.
`O=c1[nH]cnc2c(C3OC(CO)C(O)C3O)c[nH]c12` (stereo not drawn): the TGI is more than 100 µM.
The same measure, in the same setting: with `CC(C)=CCN1CC(C)C(=O)Nc2cc(Cl)ccc21` (stereo not drawn) the figure was more than 100 µM.
The same measure, in the same setting: with `CC(C)(C)OC(=O)NC(Cc1ccc(O)cc1)C(=O)NC(CCCCN)C(=O)NC(Cc1ccc(O)cc1)C(=O)NC(CCCCN)C(=O)ON1C(=O)CCC1=O` (stereo not drawn) (Boc-YKYK-OSu; configuration not given here) the figure was more than 100 µM; with `[N-]=[N+]=Nc1c(Cl)c(=O)n(-c2ccccc2)c2ccccc12`, 28.9 µM.

Another assay relates to COLO 205 colon. The assay can be described thus: growth of human tumour cells (NCI), 48 h.
The molecule `O=c1[nH]cnc2c(C3OC(CO)C(O)C3O)c[nH]c12` (stereo not drawn) had a TGI of more than 100 µM.
Still for that read-out and setting: with `CC(C)=CCN1CC(C)C(=O)Nc2cc(Cl)ccc21` (stereo not drawn) the figure was 41.9 µM; with `CC(C)(C)OC(=O)NC(Cc1ccc(O)cc1)C(=O)NC(CCCCN)C(=O)NC(Cc1ccc(O)cc1)C(=O)NC(CCCCN)C(=O)ON1C(=O)CCC1=O` (stereo not drawn) (Boc-YKYK-OSu; configuration not given here), more than 100 µM.
The same measure, in the same setting: with `[N-]=[N+]=Nc1c(Cl)c(=O)n(-c2ccccc2)c2ccccc12` the figure was 47.1 µM.

A further assay relates to SF-268 CNS. The assay can be described thus: growth of human tumour cells (NCI), 48 h.
Turning to `O=c1[nH]cnc2c(C3OC(CO)C(O)C3O)c[nH]c12` (stereo not drawn), the TGI is more than 100 µM.
Same read-out and setting: as for `CC(C)=CCN1CC(C)C(=O)Nc2cc(Cl)ccc21` (stereo not drawn), the figure is more than 100 µM; as for `[N-]=[N+]=Nc1c(Cl)c(=O)n(-c2ccccc2)c2ccccc12`, 43.9 µM.

A further assay deals with MDA-MB-231 breast. The assay can be described thus: growth of human tumour cells (NCI), 48 h.
With `O=c1[nH]cnc2c(C3OC(CO)C(O)C3O)c[nH]c12` (stereo not drawn), the TGI was more than 100 µM.
The same measure, in the same setting: with `CC(C)=CCN1CC(C)C(=O)Nc2cc(Cl)ccc21` (stereo not drawn) the figure was 50.2 µM; with `CC(C)(C)OC(=O)NC(Cc1ccc(O)cc1)C(=O)NC(CCCCN)C(=O)NC(Cc1ccc(O)cc1)C(=O)NC(CCCCN)C(=O)ON1C(=O)CCC1=O` (stereo not drawn) (Boc-YKYK-OSu; configuration not given here), more than 100 µM.

The subject of another assay is HS 578T breast. The assay can be described thus: growth of human tumour cells (NCI), 48 h.
Take `O=c1[nH]cnc2c(C3OC(CO)C(O)C3O)c[nH]c12` (stereo not drawn): the TGI was more than 100 µM.
Turning to `CC(C)=CCN1CC(C)C(=O)Nc2cc(Cl)ccc21` (stereo not drawn), the TGI was more than 100 µM.
On the same count and under the same terms, with `CC(C)(C)OC(=O)NC(Cc1ccc(O)cc1)C(=O)NC(CCCCN)C(=O)NC(Cc1ccc(O)cc1)C(=O)NC(CCCCN)C(=O)ON1C(=O)CCC1=O` (stereo not drawn) (Boc-YKYK-OSu; configuration not given here) the figure was more than 100 µM.
On the same count and under the same terms, as for `[N-]=[N+]=Nc1c(Cl)c(=O)n(-c2ccccc2)c2ccccc12`, the figure is 76.9 µM.

The subject of the next assay is SK-MEL-2 melanoma. The assay can be described thus: growth of human tumour cells (NCI), 48 h.
In turn, `CC(C)=CCN1CC(C)C(=O)Nc2cc(Cl)ccc21` (stereo not drawn) yielded a TGI of 31.1 µM.
In the case of `CC(C)(C)OC(=O)NC(Cc1ccc(O)cc1)C(=O)NC(CCCCN)C(=O)NC(Cc1ccc(O)cc1)C(=O)NC(CCCCN)C(=O)ON1C(=O)CCC1=O` (stereo not drawn) (Boc-YKYK-OSu; configuration not given here), the TGI was more than 100 µM.
The molecule `[N-]=[N+]=Nc1c(Cl)c(=O)n(-c2ccccc2)c2ccccc12` yielded a TGI of 53.2 µM.

A further assay deals with MDA-N. The assay can be described thus: growth of human tumour cells (NCI), 48 h.
The molecule `O=c1[nH]cnc2c(C3OC(CO)C(O)C3O)c[nH]c12` (stereo not drawn) showed a TGI of more than 100 µM.
The same measure, in the same setting: as for `CC(C)=CCN1CC(C)C(=O)Nc2cc(Cl)ccc21` (stereo not drawn), the figure is 54.6 µM; as for `CC(C)(C)OC(=O)NC(Cc1ccc(O)cc1)C(=O)NC(CCCCN)C(=O)NC(Cc1ccc(O)cc1)C(=O)NC(CCCCN)C(=O)ON1C(=O)CCC1=O` (stereo not drawn) (Boc-YKYK-OSu; configuration not given here), more than 100 µM; as for `[N-]=[N+]=Nc1c(Cl)c(=O)n(-c2ccccc2)c2ccccc12`, 52.9 µM.

Another assay concerns A498 renal. The assay can be described thus: growth of human tumour cells (NCI), 48 h.
For the molecule `CC(C)=CCN1CC(C)C(=O)Nc2cc(Cl)ccc21` (stereo not drawn), the TGI was more than 100 µM.
Same read-out and setting: as for `CC(C)(C)OC(=O)NC(Cc1ccc(O)cc1)C(=O)NC(CCCCN)C(=O)NC(Cc1ccc(O)cc1)C(=O)NC(CCCCN)C(=O)ON1C(=O)CCC1=O` (stereo not drawn) (Boc-YKYK-OSu; configuration not given here), the figure is more than 100 µM.

A further assay concerns LOX IMVI melanoma. The assay can be described thus: growth of human tumour cells (NCI), 48 h.
Take `O=c1[nH]cnc2c(C3OC(CO)C(O)C3O)c[nH]c12` (stereo not drawn): the TGI is more than 100 µM.
Same read-out and setting: as for `CC(C)=CCN1CC(C)C(=O)Nc2cc(Cl)ccc21` (stereo not drawn), the figure is 32.4 µM; as for `[N-]=[N+]=Nc1c(Cl)c(=O)n(-c2ccccc2)c2ccccc12`, 29.5 µM.
